The values that follow come from patent EP1585727B1, “INDOLES USEFUL IN THE TREATMENT OF ANDROGEN-RECEPTOR RELATED DISEASES” (priority 2002, dated 2004).

For experiment [1], the target named is T1, human androgen receptor (Homo sapiens, UniProt P10275).
T1 construct: expressed in transfected cells; host or cells: Chinese hamster ovary (CHO) cells, cell line CHO-AR-pMMTV-LUC 1G12-A5-CA
T1 sequence (P10275 1-920): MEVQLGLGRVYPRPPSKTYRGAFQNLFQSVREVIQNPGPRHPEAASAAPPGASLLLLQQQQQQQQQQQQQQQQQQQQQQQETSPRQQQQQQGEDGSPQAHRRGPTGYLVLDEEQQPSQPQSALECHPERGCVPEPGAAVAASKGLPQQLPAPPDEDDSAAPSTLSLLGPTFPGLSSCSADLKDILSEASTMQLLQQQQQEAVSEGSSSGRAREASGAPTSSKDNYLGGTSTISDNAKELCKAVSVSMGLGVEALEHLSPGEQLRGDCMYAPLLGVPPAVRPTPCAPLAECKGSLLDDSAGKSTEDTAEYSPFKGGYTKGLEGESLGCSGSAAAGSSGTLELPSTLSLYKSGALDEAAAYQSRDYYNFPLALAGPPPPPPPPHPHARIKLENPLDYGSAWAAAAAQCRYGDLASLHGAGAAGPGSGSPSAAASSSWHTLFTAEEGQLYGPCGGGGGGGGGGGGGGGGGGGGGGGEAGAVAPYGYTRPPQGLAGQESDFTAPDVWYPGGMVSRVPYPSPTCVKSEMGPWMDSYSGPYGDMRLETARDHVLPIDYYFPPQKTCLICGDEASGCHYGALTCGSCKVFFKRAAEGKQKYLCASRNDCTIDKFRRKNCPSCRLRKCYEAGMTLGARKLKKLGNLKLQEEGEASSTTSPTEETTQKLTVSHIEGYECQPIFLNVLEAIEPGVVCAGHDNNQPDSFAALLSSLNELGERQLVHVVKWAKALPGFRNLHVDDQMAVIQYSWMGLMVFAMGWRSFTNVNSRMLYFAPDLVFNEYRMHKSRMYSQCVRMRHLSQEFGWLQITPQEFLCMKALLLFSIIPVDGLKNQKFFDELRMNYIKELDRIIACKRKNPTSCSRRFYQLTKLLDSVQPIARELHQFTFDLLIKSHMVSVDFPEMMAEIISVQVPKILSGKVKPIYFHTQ
In words: cell-based. How it is done:
Compounds were tested for their Androgen Receptor activity in a transactivation assay and in a binding assay.
The (anti-)androgenic activity of test compounds (EC50 and intrinsic activity) was determined in an in vitro bioassay of Chinese hamster ovary (CHO) cells stably transfected with the human androgen receptor expression plasmid and a reporter plasmid in which the MMTV-promoter is linked to the luciferase reporter gene. The cell-line CHO-AR-pMMTV-LUC 1G12-AS-CA is described in Schoonen et al. (2000), Journal of Steroid Biochemistry and Molecular Biology 74(4):213-222. The antiandrogenic activity of a test compound was determined by the inhibition of the transactivation via the androgen receptor of the enzyme luciferase in the presence of 1 nM DHT (5 α-dihydrotestosterone, 17β-hydroxy-5α-androstan-3-one). Intrinsic activity of antiandrogenic activity was determined in the presence of the reference antiandrogen 2-Hydroxy-2-methyl-N-(4-nitro-3-trifluoromethyl-phenyl)-propionamide (Hydroxyflutamide), and set at 100%. For androgenic activity, maximal intrinsic activity in the presence of 100 nM DHT was set at 100%. Table 4 Androgen receptor activity

Experiment [2] concerns the target T1, human androgen receptor. Description: Androgen receptor transactivation assay, antiandrogenic activity: inhibition of transactivation in the presence of 1 nM DHT (CHO-AR-pMMTV-LUC cells; Table 4). The class given is cell-based. As to conditions: in the presence of 1 nM DHT; for EC50: antiandrogenic activity, read-out: ant EC50; for Emax: intrinsic activity relative to reference antiandrogen Hydroxyflutamide (set at 100%), read-out: ant efficacy.

Experiment [3] relates to cytoplasmic human androgen receptor. In words: Competitive binding to cytoplasmic human androgen receptor from recombinant CHO cells (relative binding affinity). As to conditions: relative to DHT; cytosol of CHO-AR-pMMTV-LUC 1G12-A5-CA cells. The text has this: Determination of competitive binding to cytoplasmic human androgen receptor from recombinant CHO cells is used to estimate the relative binding affinity (RBA) of a test compound for androgen receptors present in the cytosol prepared of the recombinant CHO cell-line, CHO-AR-pMMTV-LUC 1G12-A5-CA.

Structures are written as SMILES.

What is called EC50 is the midpoint of the concentration-response curve. With `COc1ccc2c(Sc3ccccc3OC)cn(Cc3cc(F)cc(F)c3)c2c1` [Compound 21], the EC50 on human androgen receptor [1] (androgenic activity, CHO-AR-pMMTV-LUC cells, read-out: ago EC50) lay within 5 to 100 nM. Besides, on human androgen receptor [2], the EC50 was above 10000 nM and the Emax is below 20%.
At human androgen receptor [1], `O=[N+]([O-])c1ccccc1Sc1cn(Cc2cc(F)cc(F)c2)c2cccc(F)c12` [Compound 51] gave an EC50 of 5 to 100 nM. Moreover, the Emax on human androgen receptor [2] was below 20%.
The matching figures for `O=[N+]([O-])c1ccccc1Sc1cn(Cc2cc(F)cc(F)c2)c2ccccc12` [Compound 52]: below 5 nM and below 20%.
For `O=[N+]([O-])c1ccccc1Sc1cn(Cc2cc(F)cc(F)c2)c2ccc(O)cc12` [Compound 56], the Emax on human androgen receptor [1] (maximal intrinsic activity in the presence of 100 nM DHT set at 1.00, read-out: ago efficacy) is below 20%. Moreover, at human androgen receptor [2], the EC50 was above 10000 nM and the Emax is below 20%.
Turning to `COc1ccc2c(Sc3ccccc3[N+](=O)[O-])cn(Cc3ccccc3)c2c1` [Compound 92], the Emax on human androgen receptor [2] was below 20%. In addition, the “relative binding affinity (RBA)” value in experiment [3] is recorded as above 1%.
